Measurements published in US11339150B2, “Benzimidazole compounds as HDAC6 inhibitors” (OnKure, Inc., priority 2019, dated 2022).
Where a name gives a salt, the structure may show the parent alone.

Target: T1, HDAC6 (Homo sapiens, UniProt Q9UBN7)
T1 sequence (Q9UBN7 1-1215): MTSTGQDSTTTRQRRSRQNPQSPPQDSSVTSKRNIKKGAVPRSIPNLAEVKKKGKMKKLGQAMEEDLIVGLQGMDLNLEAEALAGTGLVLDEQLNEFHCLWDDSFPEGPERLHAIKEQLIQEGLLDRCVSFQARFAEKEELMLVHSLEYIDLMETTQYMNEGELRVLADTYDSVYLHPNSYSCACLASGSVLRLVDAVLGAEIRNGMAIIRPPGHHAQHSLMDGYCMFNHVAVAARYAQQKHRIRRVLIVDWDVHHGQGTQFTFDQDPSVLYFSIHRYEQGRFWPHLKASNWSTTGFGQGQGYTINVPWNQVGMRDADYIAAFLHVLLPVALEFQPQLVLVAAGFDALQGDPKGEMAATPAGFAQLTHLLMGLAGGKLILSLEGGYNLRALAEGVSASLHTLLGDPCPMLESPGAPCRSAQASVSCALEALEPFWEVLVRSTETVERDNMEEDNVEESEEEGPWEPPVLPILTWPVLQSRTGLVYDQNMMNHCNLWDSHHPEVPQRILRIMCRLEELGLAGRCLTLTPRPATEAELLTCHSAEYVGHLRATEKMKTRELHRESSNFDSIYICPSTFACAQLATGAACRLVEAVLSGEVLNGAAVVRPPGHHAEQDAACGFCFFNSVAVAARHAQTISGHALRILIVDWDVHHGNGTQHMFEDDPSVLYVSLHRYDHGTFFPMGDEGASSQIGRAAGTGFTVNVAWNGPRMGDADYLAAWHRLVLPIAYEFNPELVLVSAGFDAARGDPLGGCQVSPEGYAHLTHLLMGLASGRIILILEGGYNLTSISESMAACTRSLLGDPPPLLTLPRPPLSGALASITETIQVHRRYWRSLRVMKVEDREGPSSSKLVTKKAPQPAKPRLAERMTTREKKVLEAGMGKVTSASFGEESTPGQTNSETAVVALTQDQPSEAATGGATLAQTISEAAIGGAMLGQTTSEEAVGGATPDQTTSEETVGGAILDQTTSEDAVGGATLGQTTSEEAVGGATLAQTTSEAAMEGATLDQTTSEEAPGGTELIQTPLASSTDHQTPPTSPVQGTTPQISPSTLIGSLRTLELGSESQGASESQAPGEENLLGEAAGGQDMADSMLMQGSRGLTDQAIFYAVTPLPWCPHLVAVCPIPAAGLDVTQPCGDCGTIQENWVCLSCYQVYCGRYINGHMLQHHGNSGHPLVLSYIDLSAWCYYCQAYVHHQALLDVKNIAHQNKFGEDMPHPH
Experiment: HDAC assay (fluorogenic substrate), HDAC6
Type: biochemical
Description: Base Reaction buffer: 50 mM Tris-HCl, pH8.0, 137 mM NaCl, 2.7 mM KCl, and 1 mM MgCl2. Add fresh: 1 mg/ml BSA, 1% DMSO
Fluorogenic HDAC General Substrate: 50 μM, Arg-His-Lys-Lys(Ac)
• 1. Deliver 2× enzyme in wells of reaction plate except No Enzyme control wells. Add buffer in No En wells. • 2. Deliver compounds in 100% DMSO into the enzyme mixture by Acoustic technology (Echo550; nanoliter range). Spin down and pre-incubation. • 3. Deliver 2× Substrate Mixture (Fluorogenic HDAC Substrate and co-factor if applicable) in all reaction wells to initiate the reaction. Spin and shake. • 4. Incubate for 30 min for Class 2A, 1 hr for HDAC1, 2, 3, and 6, and 2 hr for the rest of HDACs and SIRTs at 30° C. with seal. Development Step: • 5. Add Developer with Trichostatin A (or Nicotinamide for SIRTs) to stop the reaction and to generate fluorescent color. • 6. Kinetic measurement for 1.5 hr with Envision with 15 min interval. (Ex/Em=360/460 nm) • 7. Take endpoint reading for analysis after the development reaches plateau.

SMILES | inhibition at 10 µM
FC(F)c1nnc(-c2cnc(Nc3cc(Br)c4nc[nH]c4c3)nc2)o1 [Example 2, 4-bromo-N-(5-(5-(difluoromethyl)-1,3,4-oxadiazol-2-yl)pyrimidin-2-yl)-1H-benzo[d]imidazol-6-amine] | > 90%
FC(F)c1nnc(-c2cnc(Nc3cc(-c4cccnc4)c4nc[nH]c4c3)nc2)o1 [Example 3, N-(5-(5-(difluoromethyl)-1,3,4-oxadiazol-2-yl)pyrimidin-2-yl)-4-(pyridin-3-yl)-1H-benzo[d]imidazol-6-amine hydrochloride] | > 80%
Cc1nc2c(-c3ccccc3)cc(Nc3ncc(-c4nnc(C(F)F)o4)cn3)cc2[nH]1 [Example 5, N-(5-(5-(difluoromethyl)-1,3,4-oxadiazol-2-yl)pyrimidin-2-yl)-2-methyl-4-phenyl-1H-benzo[d]imidazol-6-amine] | > 90%
CN(C)c1nc2c(-c3ccccc3)cc(Nc3ncc(-c4nnc(C(F)F)o4)cn3)cc2[nH]1 [Example 6, N6-(5-(5-(difluoromethyl)-1,3,4-oxadiazol-2-yl)pyrimidin-2-yl)-N2,N2-dimethyl-4-phenyl-1H-benzo[d]imidazole-2,6-diamine] | > 80%
CN(c1cc(-c2ccccc2)c2nc[nH]c2c1)c1ncc(-c2nnc(C(F)F)o2)cn1 [Example 7, N-(5-(5-(difluoromethyl)-1,3,4-oxadiazol-2-yl)pyrimidin-2-yl)-N-methyl-4-phenyl-1H-benzo[d]imidazol-6-amine] | > 40%
CN(C)C(=O)c1cc(Nc2ncc(-c3nnc(C(F)F)o3)cn2)cc2[nH]cnc12 [Example 8, 6-((5-(5-(difluoromethyl)-1,3,4-oxadiazol-2-yl)pyrimidin-2-yl)amino)-N,N-dimethyl-1H-benzo[d]imidazole-4-carboxamide] | > 80%
Fc1ccc(-c2cc(Nc3ncc(-c4nnc(C(F)F)o4)cn3)cc3[nH]cnc23)c(F)c1 [Example 9, N-(5-(5-(difluoromethyl)-1,3,4-oxadiazol-2-yl)pyrimidin-2-yl)-4-(2,4-difluorophenyl)-1H-benzo[d]imidazol-6-amine] | > 90%
FC(F)c1nnc(-c2cnc(Nc3cc(-c4ccccn4)c4nc[nH]c4c3)nc2)o1 [Example 10, N-(5-(5-(difluoromethyl)-1,3,4-oxadiazol-2-yl)pyrimidin-2-yl)-4-(pyridin-2-yl)-1H-benzo[d]imidazol-6-amine] | > 90%
O=S(=O)(NCCO)c1cc(Nc2ncc(-c3nnc(C(F)F)o3)cn2)cc2[nH]cnc12 [Example 11, 6-((5-(5-(difluoromethyl)-1,3,4-oxadiazol-2-yl)pyrimidin-2-yl)amino)-N-(2-hydroxyethyl)-1H-benzo[d]imidazole-4-sulfonamide] | > 90%
FC(F)c1nnc(-c2cnc(Nc3cc(-c4ccc(N5CCOCC5)cc4)c4nc[nH]c4c3)nc2)o1 [Example 17, N-(5-(5-(difluoromethyl)-1,3,4-oxadiazol-2-yl)pyrimidin-2-yl)-4-(4-morpholinophenyl)-1H-benzo[d]imidazol-6-amine] | > 90%
FC(F)c1nnc(-c2cnc(Nc3cc(-c4ccc(CN5CCOCC5)cc4)c4nc[nH]c4c3)nc2)o1 [Example 18, N-(5-(5-(difluoromethyl)-1,3,4-oxadiazol-2-yl)pyrimidin-2-yl)-4-(4-(morpholinomethyl)phenyl)-1H-benzo[d]imidazol-6-amine] | > 90%
FC(F)c1nnc(-c2cnc(Nc3ccc4nc[nH]c4c3)nc2)o1 [Example 19, N-(5-(5-(difluoromethyl)-1,3,4-oxadiazol-2-yl)pyrimidin-2-yl)-1H-benzo[d]imidazol-6-amine] | > 90%
FC(F)c1nnc(-c2cnc(NCc3cc(-c4ccccc4)c4nc[nH]c4c3)nc2)o1 [Example 20, 5-(5-(difluoromethyl)-1,3,4-oxadiazol-2-yl)-N-((4-phenyl-1H-benzo[d]imidazol-6-yl)methyl)pyrimidin-2-amine] | > 90%
OCCn1cnc2c(-c3ccccn3)cc(Nc3ncc(-c4nnc(C(F)F)o4)cn3)cc21 [Example 21, 2-(6-((5-(5-(difluoromethyl)-1,3,4-oxadiazol-2-yl)pyrimidin-2-yl)amino)-4-(pyridin-2-yl)-1H-benzo[d]imidazol-1-yl)ethan-1-ol] | > 90%
Fc1cnc(-c2cc(Nc3ncc(-c4nnc(C(F)F)o4)cn3)cc3[nH]cnc23)c(F)c1 [Example 22, N-(5-(5-(difluoromethyl)-1,3,4-oxadiazol-2-yl)pyrimidin-2-yl)-4-(3,5-difluoropyridin-2-yl)-1H-benzo[d]imidazol-6-amine] | > 90%
FC(F)c1nnc(-c2cnc(Nc3cc(C(F)(F)F)c4nc[nH]c4c3)nc2)o1 [Example 23, N-(5-(5-(difluoromethyl)-1,3,4-oxadiazol-2-yl)pyrimidin-2-yl)-4-(trifluoromethyl)-1H-benzo[d]imidazol-6-amine] | > 90%

Continued, values first:

inhibition at 10 µM | SMILES
> 70% | Cn1cnc2c(-c3ccccc3)cc(Nc3ncc(-c4nnc(C(F)F)o4)cn3)cc21 [Example 4, N-(5-(5-(difluoromethyl)-1,3,4-oxadiazol-2-yl)pyrimidin-2-yl)-1-methyl-4-phenyl-1H-benzo[d]imidazol-6-amine]
> 90% | C=CCn1cnc2c(-c3ccccc3)cc(Nc3ncc(-c4nnc(C(F)F)o4)cn3)cc21 [Example 12, 1-allyl-N-(5-(5-(difluoromethyl)-1,3,4-oxadiazol-2-yl)pyrimidin-2-yl)-4-phenyl-1H-benzo[d]imidazol-6-amine]
> 90% | OCC(O)Cn1cnc2c(-c3ccccc3)cc(Nc3ncc(-c4nnc(C(F)F)o4)cn3)cc21 (stereo not drawn) [Example 13, 3-(6-((5-(5-(difluoromethyl)-1,3,4-oxadiazol-2-yl)pyrimidin-2-yl)amino)-4-phenyl-1H-benzo[d]imidazol-1-yl)propane-1,2-diol]
> 90% | OCCn1cnc2c(-c3ccccc3)cc(Nc3ncc(-c4nnc(C(F)F)o4)cn3)cc21 [Example 14, 2-(6-((5-(5-(difluoromethyl)-1,3,4-oxadiazol-2-yl)pyrimidin-2-yl)amino)-4-phenyl-1H-benzo[d]imidazol-1-yl)ethan-1-ol]
> 90% | CN(C)CCn1cnc2c(-c3ccccc3)cc(Nc3ncc(-c4nnc(C(F)F)o4)cn3)cc21 [Example 15, N-(5-(5-(difluoromethyl)-1,3,4-oxadiazol-2-yl)pyrimidin-2-yl)-1-(2-(dimethylamino)ethyl)-4-phenyl-1H-benzo[d]imidazol-6-amine]
> 90% | OC1CCN(CCn2cnc3c(-c4ccccc4)cc(Nc4ncc(-c5nnc(C(F)F)o5)cn4)cc32)C1 (stereo not drawn) [Example 16, 1-(2-(6-((5-(5-(difluoromethyl)-1,3,4-oxadiazol-2-yl)pyrimidin-2-yl)amino)-4-phenyl-1H-benzo[d]imidazol-1-yl)ethyl)pyrrolidin-3-ol]
> 90% | OCCn1cnc2cc(Nc3ncc(-c4nnc(C(F)F)o4)cn3)cc(-c3ccccc3)c21 [Example 24, 2-(5-((5-(5-(difluoromethyl)-1,3,4-oxadiazol-2-yl)pyrimidin-2-yl)amino)-7-phenyl-1H-benzo[d]imidazol-1-yl)ethan-1-ol]
> 90% | CN(C)C(=O)Cn1cnc2c(-c3ccccc3)cc(Nc3ncc(-c4nnc(C(F)F)o4)cn3)cc21 [Example 25, 2-(6-((5-(5-(difluoromethyl)-1,3,4-oxadiazol-2-yl)pyrimidin-2-yl)amino)-4-phenyl-1H-benzo[d]imidazol-1-yl)-N,N-dimethylacetamide]
